# PMC6017736, “Indole-3-Carbonitriles as DYRK1A Inhibitors by Fragment-Based Drug Design” (Molecules : A Journal of Synthetic Chemistry and Natural …, 2018)
# Marks after values point to notes of the source that are not given here.
# How the values were obtained:
# DYRK1B = DYRK1B (Homo sapiens, UniProt Q9Y463); assay: Protein kinase assay ([γ-33P]-ATP, RS peptide substrate), DYRK1B; type: biochemical; conditions: 15 µM ATP; read-out: IC50 DYRK 1B
# Description: (§1) DYRK1A, 1B, 2, 3 (human, recombinant, expressed in E. coli as GST fusion proteins) and CLK1, 2, 3, and 4 (mouse, recombinant, expressed in E. coli as GST fusion proteins) were assayed as described for GSK-3 in Buffer A (supplemented extemporaneously with 0.15 mg BSA/mL + 1 mM DTT) with 1 µg of RS peptide ([…]) as a substrate.
# DYRK2 = target: T1, DYRK2 (Homo sapiens, UniProt Q92630); assay: Protein kinase assay ([γ-33P]-ATP, RS peptide substrate), DYRK2; type: biochemical; conditions: for IC50: 15 µM ATP
# T1 sequence (Q92630 1-601): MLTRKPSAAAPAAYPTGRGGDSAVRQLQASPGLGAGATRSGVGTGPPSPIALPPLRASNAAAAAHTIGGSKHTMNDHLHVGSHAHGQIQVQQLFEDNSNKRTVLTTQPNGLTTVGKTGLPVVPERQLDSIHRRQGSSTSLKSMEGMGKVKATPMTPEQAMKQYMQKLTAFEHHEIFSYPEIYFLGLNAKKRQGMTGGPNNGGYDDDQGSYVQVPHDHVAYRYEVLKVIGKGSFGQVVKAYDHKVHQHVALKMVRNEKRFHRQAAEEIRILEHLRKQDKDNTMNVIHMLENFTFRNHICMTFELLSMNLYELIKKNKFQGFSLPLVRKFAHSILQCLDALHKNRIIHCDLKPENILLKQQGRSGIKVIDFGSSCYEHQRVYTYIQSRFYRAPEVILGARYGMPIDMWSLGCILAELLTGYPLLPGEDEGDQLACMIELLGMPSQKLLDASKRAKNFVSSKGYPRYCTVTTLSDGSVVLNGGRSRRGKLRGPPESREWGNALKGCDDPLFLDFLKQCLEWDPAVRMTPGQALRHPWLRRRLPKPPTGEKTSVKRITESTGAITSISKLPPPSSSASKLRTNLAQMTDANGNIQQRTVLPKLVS
# Description: as §1
# DYRK3 = target: T2, DYRK3 (Homo sapiens, UniProt O43781); assay: Protein kinase assay ([γ-33P]-ATP, RS peptide substrate), DYRK3; type: biochemical; conditions: for IC50: 15 µM ATP
# T2 sequence (O43781 1-588): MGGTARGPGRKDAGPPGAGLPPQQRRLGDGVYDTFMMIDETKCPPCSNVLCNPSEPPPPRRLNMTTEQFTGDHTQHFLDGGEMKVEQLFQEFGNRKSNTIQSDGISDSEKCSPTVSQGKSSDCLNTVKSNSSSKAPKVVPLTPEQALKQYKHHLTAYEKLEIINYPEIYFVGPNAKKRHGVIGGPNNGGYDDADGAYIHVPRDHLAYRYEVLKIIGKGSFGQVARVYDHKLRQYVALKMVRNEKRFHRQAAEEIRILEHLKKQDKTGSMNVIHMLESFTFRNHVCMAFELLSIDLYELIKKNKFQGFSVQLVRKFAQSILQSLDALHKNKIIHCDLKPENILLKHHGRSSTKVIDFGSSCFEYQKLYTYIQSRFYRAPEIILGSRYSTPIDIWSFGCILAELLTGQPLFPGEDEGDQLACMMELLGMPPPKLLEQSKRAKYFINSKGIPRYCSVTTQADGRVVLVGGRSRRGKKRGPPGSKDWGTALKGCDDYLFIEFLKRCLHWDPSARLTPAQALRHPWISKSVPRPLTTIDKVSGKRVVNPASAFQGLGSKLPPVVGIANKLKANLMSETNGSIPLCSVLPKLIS
# Description: as §1
# CLK2 = CLK2 (Mus musculus, UniProt O35491); assay: Protein kinase assay ([γ-33P]-ATP, RS peptide substrate), CLK2; type: biochemical; conditions: 15 µM ATP
# Sequence of CLK2 (O35491 whole entry): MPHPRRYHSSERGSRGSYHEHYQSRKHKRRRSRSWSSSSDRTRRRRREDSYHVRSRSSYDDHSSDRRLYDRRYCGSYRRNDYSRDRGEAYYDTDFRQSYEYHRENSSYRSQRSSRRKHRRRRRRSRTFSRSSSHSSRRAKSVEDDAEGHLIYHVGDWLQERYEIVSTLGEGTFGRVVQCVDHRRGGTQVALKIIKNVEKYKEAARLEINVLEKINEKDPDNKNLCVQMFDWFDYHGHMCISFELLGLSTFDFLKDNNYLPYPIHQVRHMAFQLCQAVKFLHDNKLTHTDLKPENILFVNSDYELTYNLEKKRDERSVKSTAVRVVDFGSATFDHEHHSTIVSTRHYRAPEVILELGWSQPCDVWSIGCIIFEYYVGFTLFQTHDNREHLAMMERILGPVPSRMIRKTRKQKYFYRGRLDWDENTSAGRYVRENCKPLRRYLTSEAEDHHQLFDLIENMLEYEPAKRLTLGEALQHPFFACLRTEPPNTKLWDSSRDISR
# Description: as §1
# CLK3 = CLK3 (Mus musculus, UniProt O35492); assay: Protein kinase assay ([γ-33P]-ATP, RS peptide substrate), CLK3; type: biochemical; conditions: for IC50: 15 µM ATP; for inhibition at 10 µM: 10 µM compound, read-out: Inhibition at 10 µM CLK3 (class symbol)
# Sequence of CLK3 (O35492 whole entry): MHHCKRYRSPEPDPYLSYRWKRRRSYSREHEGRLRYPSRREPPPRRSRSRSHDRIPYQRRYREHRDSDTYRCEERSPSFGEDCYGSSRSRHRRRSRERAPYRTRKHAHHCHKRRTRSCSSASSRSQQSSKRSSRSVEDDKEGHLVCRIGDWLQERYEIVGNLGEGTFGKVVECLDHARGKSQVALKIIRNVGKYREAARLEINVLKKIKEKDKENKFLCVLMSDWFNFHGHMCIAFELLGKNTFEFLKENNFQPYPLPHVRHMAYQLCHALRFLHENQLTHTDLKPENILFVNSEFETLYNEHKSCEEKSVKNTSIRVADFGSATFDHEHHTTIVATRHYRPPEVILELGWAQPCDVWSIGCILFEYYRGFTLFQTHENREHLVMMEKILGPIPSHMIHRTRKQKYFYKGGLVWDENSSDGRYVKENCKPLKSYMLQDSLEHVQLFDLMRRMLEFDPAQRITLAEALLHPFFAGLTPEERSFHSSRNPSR
# Description: as §1
# CLK4 = CLK4 (Mus musculus, UniProt O35493); assay: Protein kinase assay ([γ-33P]-ATP, RS peptide substrate), CLK4; type: biochemical; conditions: 15 µM ATP
# Sequence of CLK4 (O35493 whole entry): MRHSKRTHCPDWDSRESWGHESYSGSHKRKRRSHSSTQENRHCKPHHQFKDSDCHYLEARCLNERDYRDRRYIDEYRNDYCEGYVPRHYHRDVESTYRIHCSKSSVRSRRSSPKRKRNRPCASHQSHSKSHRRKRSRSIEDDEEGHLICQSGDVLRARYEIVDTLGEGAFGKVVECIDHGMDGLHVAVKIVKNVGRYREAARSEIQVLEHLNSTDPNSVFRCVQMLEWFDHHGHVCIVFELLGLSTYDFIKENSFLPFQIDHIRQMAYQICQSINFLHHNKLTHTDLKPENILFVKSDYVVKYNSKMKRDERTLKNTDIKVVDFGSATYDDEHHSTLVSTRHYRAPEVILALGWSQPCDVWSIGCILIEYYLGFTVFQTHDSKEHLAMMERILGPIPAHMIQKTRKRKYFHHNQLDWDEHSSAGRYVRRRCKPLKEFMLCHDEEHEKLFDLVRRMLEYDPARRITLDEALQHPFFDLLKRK
# Description: as §1
# [1] = Thermodynamic solubility, shake-flask method with HPLC quantification; type: physicochemical; conditions: phosphate buffer pH 7.4, 25 °C
# Description: For solubility assays an aqueous phosphate buffer pH 7.4 was used. The buffer was prepared by dissolving Na2HPO4 × 2 H2O (298 mg), KH2PO4 (19 mg) and NaCl (800 mg) in water (100 mL). The pH was adjusted to 7.4 by addition of hydrochloric acid. The thermodynamic solubility was determined using a shake-flask method with quantification by a HPLC method. The test compounds (500 µg) were incubated with aqueous phosphate buffer pH 7.4 (400 µL) in sealed Whatman MiniUniPrep vials (GE Healthcare, Freiburg, Germany). The mixtures were shaken at 25 °C and 400 rpm for 24–96 h (IKA KS 3000 ic control, IKA-Werke, Staufen, Germany). After 24 h, 48 h and 72 h, the mixtures were visually inspected for remaining solids and the solids were filtered off. The concentrations in the resulting saturated solutions were quantified by isocratic HPLC using calibration with external standard. If equilibrium was not reached after 72 h, solubility of a further sample was determined after 96 h. For calibration, a stock solution of 10 mM of the test compounds in DMSO was prepared and the stock solution was diluted with ACN to suitable concentrations. The AUC at the wavelength maxima was used for quantification.
# [2] = Kinetic solubility, laser nephelometry; type: physicochemical; conditions: phosphate buffer pH 7.4, nephelometry
# Description: The kinetic solubility was determined using laser nephelometry. A stock solution of the test compounds in DMSO was prepared and further diluted with DMSO to achieve a dilution series of 8–12 solutions with different concentrations. The DMSO solutions (2 µL) were placed in a row on a 96-well plate and diluted with aqueous phosphate buffer pH 7.4 (198 µL). The well plate was scanned by a nephelometer (Nephelostar Plus, BMG Labtech, Ortenberg, Germany). Unsolved particles scatter the laser light which is detected by the nephelometer. The intensity of the scattered light is proportional to the particle concentration in the suspension. The intensity of the scattered light was plotted versus the concentration to obtain a kick off curve. The concentration at which the compounds began to precipitate was directly read out from the kick off curve.
# GSK-3 = assay: Protein kinase assay ([γ-33P]-ATP, GS-1 substrate), GSK-3
# Description: First, the kinases were incubated with 10 µM solutions of the compounds and the residual activities compared to controls were measured.
# Controls were performed with appropriate dilutions of DMSO. The GS-1 and RS peptide substrates were obtained from Proteogenix (Oberhausbergen, France).
# After 30 min incubation at 30 °C, the reaction was stopped by harvesting onto P81 phosphocellulose supernatant (Whatman) using a FilterMate harvester (Packard) and washing in 1% phosphoric acid. Scintillation fluid was added and the radioactivity measured in a Packard counter [52].
# All data points for construction of dose response curves were recorded in triplicate.
# CLK1 = CLK1 (Mus musculus, UniProt P22518); assay: Protein kinase assay ([γ-33P]-ATP, RS peptide substrate), CLK1; type: biochemical; conditions: for IC50: 15 µM ATP
# Sequence of CLK1 (P22518 whole entry): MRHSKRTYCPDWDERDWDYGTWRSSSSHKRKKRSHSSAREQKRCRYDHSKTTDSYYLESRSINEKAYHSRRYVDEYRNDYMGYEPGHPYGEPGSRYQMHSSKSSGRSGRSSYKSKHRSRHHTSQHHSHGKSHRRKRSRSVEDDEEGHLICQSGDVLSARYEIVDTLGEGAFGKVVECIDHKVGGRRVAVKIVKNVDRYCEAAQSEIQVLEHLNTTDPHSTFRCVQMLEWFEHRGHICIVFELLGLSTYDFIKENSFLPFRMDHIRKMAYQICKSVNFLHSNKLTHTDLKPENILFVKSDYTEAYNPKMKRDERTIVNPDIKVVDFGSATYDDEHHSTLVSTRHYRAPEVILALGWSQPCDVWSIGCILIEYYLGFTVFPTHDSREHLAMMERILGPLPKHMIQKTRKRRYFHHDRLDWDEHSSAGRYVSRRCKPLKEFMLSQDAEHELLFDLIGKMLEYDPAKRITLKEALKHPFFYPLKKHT
# Description: as §1
# [3] = Cytotoxicity, cell viability by tetrazolium dye assay (XTT assay); type: cell-based; conditions: human, HeLa cells, read-out: Viability of treated HeLa cells relative to control cells
# Description: To evaluate the applicability of the 2-substituted indole-3-carbonitrile compounds in cell culture experiments, we assessed toxicity of 6f, 6h, 6s and 13b on HeLa cells by viability assays (Table 4).
# The inhibitors were added to the cultured cells from stock solutions in DMSO to the desired final concentration. For cytotoxicity assays, HeLa cells were grown in 96-well plates (20,000–30,000 cells per well) and incubated with the test compounds for 3 days before cell viability was evaluated with the help of a tetrazolium dye assay (XTT assay, AppliChem GmbH, Darmstadt, Germany).
# DYRK1A [4] = target: T3, DYRK1A (Homo sapiens, UniProt Q13627); assay: Protein kinase assay ([γ-33P]-ATP, RS peptide substrate), DYRK1A; type: biochemical; conditions: for IC50: 15 µM ATP, read-out: IC50 DYRK 1A
# DYRK1A [5] = target: T3, DYRK1A; assay: Ligand-lipophilicity efficiency (pIC50 minus calculated logP)
# Description: All new compounds were evaluated based on their physicochemical properties regarding Lipinski’s rule of five and the ligand-lipophilicity efficiency (LLE). Both concepts are used to assess the druglikeness of drug development candidates. […] LLE is calculated from pIC50 minus calculated logP [46].
# [6] = tested on: DYRK1A (phosphorylation of T434 in SF3B1) in HeLa cells; assay: Inhibition of endogenous DYRK1A activity in HeLa cells (phosphorylation of T434 in GFP-SF3B1-NT, Western blot); type: cell-based; conditions: HeLa cells, negative control
# Description: Phosphorylation of T434 in SF3B1 depends on endogenous DYRK1A activity and can be assessed with the help of a phosphospecific antibody [43].
# Briefly, HeLa cells were grown in 6-well plates and treated with test compounds for 18 h before cells were lysed with 100 μL SDS lysis buffer (20 mM Tris HCl pH 7.4, 1% SDS) at 96 °C and sonicated. […] Relative phosphorylation of SF3B1 was calculated by normalisation to total protein levels as determined from GFP immunoreactivity. IC50 values were determined by non-linear curve fitting using the GraphPad Prism 5.0 program (GraphPad Software, La Jolla, CA, USA).
# HeLa cells expressing GFP-SF3B1-NT were treated with the indicated compounds for 18 h before cells were lysed with a denaturing lysis. The phosphorylation state of SF3B1 was determined by Western blot analysis of total cellular lysates. The pT434 signals were normalized to the total amount of GFP immunoreactivity. […] The graphs present the quantitative evaluation of two (6s) or three experiments. DYRK1A activity is expressed as normalized pT434 immunoreactivity relative to that in cells treated with vehicle (means ± SEM).
# [7] = pIC50 (DYRK1A) minus calculated logP
# Sequence of DYRK1B (Q9Y463 whole entry, the tested form may be a part): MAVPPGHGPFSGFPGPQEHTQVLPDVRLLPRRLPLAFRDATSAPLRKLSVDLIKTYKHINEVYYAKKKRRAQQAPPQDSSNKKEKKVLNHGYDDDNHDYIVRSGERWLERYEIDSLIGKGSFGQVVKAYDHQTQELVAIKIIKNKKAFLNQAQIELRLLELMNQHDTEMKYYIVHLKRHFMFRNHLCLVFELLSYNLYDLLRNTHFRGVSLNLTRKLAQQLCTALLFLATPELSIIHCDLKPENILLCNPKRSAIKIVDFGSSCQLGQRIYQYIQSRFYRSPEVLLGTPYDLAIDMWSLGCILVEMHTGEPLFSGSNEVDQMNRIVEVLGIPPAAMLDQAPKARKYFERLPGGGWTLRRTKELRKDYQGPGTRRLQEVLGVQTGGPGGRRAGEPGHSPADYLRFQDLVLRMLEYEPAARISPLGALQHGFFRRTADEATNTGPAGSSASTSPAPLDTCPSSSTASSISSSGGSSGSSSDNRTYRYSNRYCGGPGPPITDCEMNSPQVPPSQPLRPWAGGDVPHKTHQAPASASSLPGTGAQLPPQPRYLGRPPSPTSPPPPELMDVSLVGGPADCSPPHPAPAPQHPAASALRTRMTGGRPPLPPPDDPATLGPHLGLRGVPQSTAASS
Structure (SMILES),IC50 (DYRK1B) [nM],IC50 (DYRK2) [nM],IC50 (DYRK3) [nM],IC50 (CLK2) [nM],IC50 (CLK3) [nM],IC50 (CLK4) [nM],"Sexp., therm., pH 7.4 [1]","Sexp., kin., pH 7.4 [2]",IC50 (CLK1) [nM],"viability at 3 days, 1 µM [3] [%]","viability at 3 days, 3 µM [3] [%]","viability at 3 days, 10 µM [3] [%]",also measured
"N#Cc1c[nH]c2c(Cl)cccc12 [Compound 6a, 7-Chloro-1H-indole-3-carbonitrile]",> 10000,> 10000,> 10000,> 10000,> 10000,> 10000,143 ± 6.3^c µM,116 ± 14 µM,–,–,–,–,"IC50 (GSK-3; read-out: IC50 GSK3, 15 µM ATP): > 10000 nM"
"N#Cc1c(-c2ccccc2)[nH]c2c(Cl)cccc12 [Compound 6f, 7-Chloro-2-phenyl-1H-indole-3-carbonitrile]",> 10000,> 10000,> 10000,> 10000,> 10000,120,<0.5 µM,14.7 ± 4.5 µM,70,94,98,85,–
"N#Cc1c(-c2ccccc2)[nH]c2c(I)cccc12 [Compound 6h, 7-Iodo-2-phenyl-1H-indole-3-carbonitrile]",570,> 10000,> 10000,2000,> 10000,50,<0.5 µM,4.57 (4.11–5.03) µM,80,97,97,87,–
"N#Cc1c(C2CC2)[nH]c2c(I)cccc12 [Compound 6r, 2-Cyclopropyl-7-iodo-1H-indole-3-carbonitrile]",500,8000,> 10000,1000,–,100,<0.5 µM,38.1 (37.6–38.6) µM,110,–,–,–,"IC50 (DYRK1A [4]): 140 nM; inhibition at 10 µM (CLK3): < 20%; LLE (DYRK1A [5]; Table S2): 3.37; LLE (DYRK1A [5]; [7]): 3.37; Inhibition at 10 µM GSK3 (class symbol) (GSK-3; 10 µM compound): - (-: less than 20% inhibition at 10 µM, IC50 was not determined)"
"N#Cc1cn(Cc2ccccc2)c2c(Br)cccc12 [Compound 13b, 1-Benzyl-7-bromo-1H-indole-3-carbonitrile]",–,–,–,–,–,–,–,–,–,94,94,66,"remaining activity at 10 µM (DYRK1A [4]; 10 µM compound, compared to controls, read-out: Residual Activity at 10 µM DYRK 1A): 81%; remaining activity at 10 µM (CLK1; 10 µM compound, compared to controls, read-out: Residual Activity at 10 µM CLK1): 53%; Effect on the phosphorylation of SF3B1 on T434 [6]: did not affect; Residual Activity at 10 µM GSK3 (GSK-3; 10 µM compound, compared to controls): 114%"
"Cn1c(-c2ccccc2)c(C#N)c2cccc(I)c21 [Compound 13f, 7-Iodo-1-methyl-2-phenyl-1H-indole-3-carbonitrile]",2100,–,–,> 10000,–,1000,<0.5 µM,37.5 (36.6–38.4) µM,600,–,–,–,"IC50 (DYRK1A [4]): 650 nM; inhibition at 10 µM (DYRK2; 10 µM compound, read-out: Inhibition at 10 µM DYRK2 (class symbol)): < 20%; inhibition at 10 µM (DYRK3; 10 µM compound, read-out: Inhibition at 10 µM DYRK3 (class symbol)): < 20%; inhibition at 10 µM (CLK3): < 20%; LLE (DYRK1A [5]; Table S2): 1.54; LLE (DYRK1A [5]; [7]): 1.54; Inhibition at 10 µM GSK3 (class symbol) (GSK-3; 10 µM compound): - (-: less than 20% inhibition at 10 µM, IC50 was not determined)"
"O=C(O)c1nc2ccccc2c2[nH]c3c(I)cccc3c12 [KuFal194 (5), 10-iodo-11H-indolo[3,2-c]quinoline-6-carboxylic acid, reference compound]",–,–,–,–,–,–,< 0.5 µM,5.28 (4.99–5.57) µM,–,78,75,45,–
